# Data published in ChEMBL document CHEMBL3392977, “Synthesis and biological evaluation of adamantane-based aminophenols as a novel class of antiplasmodial agents” (Bioorg Med Chem Lett, 2015).
# pIC50: −log10 of the molar value.
# Experiments:
# Plasmodium falciparum [1] = assay: Antiplasmodial activity against Plasmodium falciparum NF54 by SYBR Green-based method; format: functional, organism-based
# Plasmodium falciparum [2] = assay: Antiplasmodial activity against multidrug-resistant Plasmodium falciparum K1 by SYBR Green-based method; format: functional, organism-based
# hERG (KCNH2) = hERG (KCNH2) (Homo sapiens, UniProt Q12809); assay: Inhibition of human ERG at 11.1 uM
# Liver microsome = assay: Clearance in human liver microsomes at 1 uM after 2 to 30 mins by LC-MS/MS analysis; format: ADME
# [3] = Protein binding in human plasma; format: ADME, cell-free
# [4] = Octanol-water partition coefficient, log D by shake-flask method; format: physicochemical
# [5] = Clearance in rat hepatocytes assessed per million cells at 1 uM after 5 to 120 mins by LC-MS/MS analysis; format: ADME, cell-based, Hepatocyte; details: read-out: CLH
# [6] = Solubility of the compound […]; format: physicochemical
# [7] = Selectivity index, ratio of IC50 for human A549 cells to IC50 for Plasmodium falciparum; format: toxicity, cell-based; details: read-out: Ratio IC50
# THP-1 = assay: Cytotoxicity against human THP1 cells; format: cell-based
# Chain of hERG (KCNH2) (Q12809 whole entry): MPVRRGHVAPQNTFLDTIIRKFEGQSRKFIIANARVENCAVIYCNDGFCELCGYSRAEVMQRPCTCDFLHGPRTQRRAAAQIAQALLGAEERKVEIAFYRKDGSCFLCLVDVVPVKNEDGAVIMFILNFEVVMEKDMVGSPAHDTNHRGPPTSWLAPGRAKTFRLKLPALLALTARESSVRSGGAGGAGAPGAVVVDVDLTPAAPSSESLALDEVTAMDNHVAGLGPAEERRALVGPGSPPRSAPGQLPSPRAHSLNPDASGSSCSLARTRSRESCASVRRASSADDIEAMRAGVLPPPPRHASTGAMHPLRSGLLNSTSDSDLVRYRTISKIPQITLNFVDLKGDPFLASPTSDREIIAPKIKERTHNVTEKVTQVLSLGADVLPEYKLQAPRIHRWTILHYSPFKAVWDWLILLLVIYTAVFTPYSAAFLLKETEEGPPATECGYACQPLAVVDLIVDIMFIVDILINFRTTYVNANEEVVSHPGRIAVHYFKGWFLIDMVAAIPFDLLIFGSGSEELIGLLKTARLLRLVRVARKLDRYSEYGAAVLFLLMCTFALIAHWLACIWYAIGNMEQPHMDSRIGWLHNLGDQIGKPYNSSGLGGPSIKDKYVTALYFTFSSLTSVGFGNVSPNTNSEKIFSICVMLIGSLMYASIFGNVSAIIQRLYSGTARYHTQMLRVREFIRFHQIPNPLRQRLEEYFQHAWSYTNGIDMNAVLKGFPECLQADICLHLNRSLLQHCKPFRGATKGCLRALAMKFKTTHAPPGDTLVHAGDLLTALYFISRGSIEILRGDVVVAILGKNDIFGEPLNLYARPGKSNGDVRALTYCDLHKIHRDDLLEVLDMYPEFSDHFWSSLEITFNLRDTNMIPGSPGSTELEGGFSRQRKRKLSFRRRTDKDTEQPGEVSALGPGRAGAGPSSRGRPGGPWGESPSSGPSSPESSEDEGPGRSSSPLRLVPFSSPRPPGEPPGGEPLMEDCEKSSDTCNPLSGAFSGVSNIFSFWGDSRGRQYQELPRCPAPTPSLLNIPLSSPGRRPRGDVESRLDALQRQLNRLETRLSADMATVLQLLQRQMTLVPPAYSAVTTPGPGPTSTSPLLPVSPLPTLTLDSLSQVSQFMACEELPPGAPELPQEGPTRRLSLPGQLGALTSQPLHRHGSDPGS
SMILES,pIC50 (Plasmodium falciparum [1]),pIC50 (Plasmodium falciparum [2]),inhibition at 11.1 µM (hERG (KCNH2)) [%],CLH (Liver microsome) [µL/min],fraction unbound [3],logD [4],hepatocyte CLint at 1 µM [5] [µL/min/1e6 cells],solubility [6] [µM],selectivity ratio [7],Activity (THP-1)
Cc1ccc(CNCC2CC2)c(O)c1,5.85,6.28,–,–,–,–,–,–,–,–
CCNCc1ccc(C)cc1O,< 5.70,< 5.70,–,–,–,–,–,–,–,–
Cc1ccc(CNC2CCCCC2)c(O)c1,6.14,6.89,–,–,–,–,–,–,–,–
Cc1ccc(CNC2C3CC4CC(C3)CC2C4)c(O)c1 (stereo not drawn),7.37,7.82,–,–,–,–,–,–,–,–
Cc1ccc(CNCC23CC4CC(CC(C4)C2)C3)c(O)c1,8.22,> 8.40,–,–,–,–,–,–,–,–
COc1ccc(CNCC23CC4CC(CC(C4)C2)C3)c(O)c1,7.66,8.22,46.2,59,0.044,2.7,391,446,–,–
Oc1cccc(F)c1CNCC12CC3CC(CC(C3)C1)C2,7.55,8.10,–,–,–,–,–,–,–,–
COc1cccc(F)c1CNCC12CC3CC(CC(C3)C1)C2,< 5.70,5.96,–,–,–,–,–,–,–,–
c1ccc(CNCC23CC4CC(CC(C4)C2)C3)cc1,< 5.70,< 5.70,–,–,–,–,–,–,–,–
CN(Cc1ccccc1O)CC12CC3CC(CC(C3)C1)C2,< 6.30,6.57,–,–,–,–,–,–,–,–
O=C(NCC12CC3CC(CC(C3)C1)C2)c1ccccc1O,< 6.30,6.39,–,–,–,–,–,–,–,–
Oc1ccc(Cl)cc1CNCC12CC3CC(CC(C3)C1)C2,8.30,> 8.40,26.8,80,0.004,4,208,43,5290,Non-toxic
Oc1ccc(Br)cc1CNCC12CC3CC(CC(C3)C1)C2,8.15,> 8.40,–,–,–,–,–,–,4780,Non-toxic
Cc1ccc(O)c(CNCC23CC4CC(CC(C4)C2)C3)c1,7.37,7.82,28.3,93,0.031,3.3,134,97,> 1160,Non-toxic
Oc1ccc(C(F)(F)F)cc1CNCC12CC3CC(CC(C3)C1)C2,7.00,7.92,–,–,–,–,–,–,> 500,Non-toxic
CC(NCC12CC3CC(CC(C3)C1)C2)c1cc(Br)ccc1O (stereo not drawn),7.39,7.92,–,–,–,–,–,–,> 1220,Non-toxic
Cc1ccc(O)c(CNCC23CC4CC(CC(C4)C2)C3)n1,7.49,8.11,7.9,13,0.122,3,49,237,> 1560,Non-toxic
Oc1cc(Cl)cc(Cl)c1CNCC12CC3CC(CC(C3)C1)C2,8.10,> 8.40,–,–,–,–,–,–,> 6250,Non-toxic
Oc1c(F)cc(Br)cc1CNCC12CC3CC(CC(C3)C1)C2,7.85,> 8.40,9.2,92,0.005,3.7,162,4,> 3330,Non-toxic
Oc1ccccc1CNCC12CC3CC(CC(C3)C1)C2,7.14,8.00,–,–,–,–,–,–,–,–
C[C@@H]1CC[C@H]2[C@@H](C)C(=O)O[C@@H]3O[C@@]4(C)CC[C@@H]1[C@]32OO4 [ARTEMISININ],8.15,–,–,–,–,–,–,–,–,–
O=C1C(O)=C([C@H]2CC[C@H](c3ccc(Cl)cc3)CC2)C(=O)c2ccccc21 [ATOVAQUONE],–,8.64,–,–,–,–,–,–,–,–
